Laboratory results as given in patent US6916970B2, “Transgenic plants comprising antifungal polypeptides from alfalfa and methods for controlling plant pathogenic fungi” (Monsanto Technology, LLC, priority 1996, dated 2005).

Experiments:
Verticillium dahliae [1] = assay: Verticillium wilt disease test on transgenic potato plants expressing AlfAFP1; type: in vivo, potato plants (Solanum tuberosum var. Russet Burbank)
Procedure: Conidia and mycelia of a 2-3 week old culture of virulent Verticillium dahliae were used to inoculate a PDA (potatoes, 200 g/l; Bacto dextrose, 20 g/l; and Bacto agar, 15 g/l) Petri plate. This culture was allowed to grow at 22° C. for 4-5 days. Conidia were then harvested by washing the culture plate with sterile distilled water and filtering the liquid through two layers of cheesecloth. The conidial spore concentration was determined using a hemacytometer, and adjusted to 1×10^6 conidia/ml with sterile distilled water.
Transgenic and non-transgenic potato plants were grown from stem cuttings under sterile conditions as described above in plastic cups containing 50 mls of PM-agar medium. When plants were about 1-2 inches tall, they were removed from the medium and their roots were dipped in the spore suspension (Joaquim et al., 1991). The inoculated plants were then transplanted into 6-inch pots containing Metro-Mix 350 soil. After transplanting, each plant received an additional 5 mls of the spore suspension (1×10^6 condida/ml) on the soil surface around the base of the stem. The pots were placed in a growth chamber under the following conditions: temperature at 20° C., light intensity at […], 12 hr day/12 hr night light cycle, subirrigation with water 2 times/day, 20 minutes soaking each time. Four weeks after inoculation, the plants were scored for disease severity on a scale of 0-100% (Horsfall et al., 1945). To develop a disease progress curve over time, plants were rated once a week for at least 8 weeks.
Twenty-one independent transgenic potato lines expressing AlfAFP1 were tested for resistance to Verticillium wilt disease. […]
Table 2 summarizes the qualitative protein expression data for each of the lines, and the disease severity rating of each individual line in the Verticillium wilt disease test determined at 46 days post inoculation. […]

Fusarium culmorum = assay: Inhibition of fungal hyphal growth (microscopic hyphal length assay); type: cell-based; settings: F. culmorum
Procedure: (§1) The antifungal activity of AlfAFP1 (SEQ ID NO:2) is expressed as the concentration in μg/ml required to cause 50% inhibition of fungal hyphal growth (IC50). Percent fungal hyphal growth inhibition is defined as […] of the average hyphae length in the test sample culture divided by the average hyphae length in the control culture in which buffer is added in place of the polypeptide sample.
(§2) The antifungal activity of AlfAFP1 was determined by measuring the inhibition of fungal hyphal length of a number of different fungi in the presence of this polypeptide under an inverted microscope. Fungal spores (2×10^4 spores/ml) were allowed to germinate for 5 to 15 hours, depending on the fungus used in the test, in 50 μl of double strength testing medium. […] For studies on the antagonistic effect of cations, CaCl2 and KCl were added to final concentrations of 1 mM and 50 mM, respectively. This salt-supplemented medium is referred to as “high salt medium,” and the original medium is referred to as “low salt medium.” After spore germination, 50 μl of a filter-sterilized solution of polypeptide in distilled water were added to the testing well containing the germinated spores, and the mixture was incubated for 15 to 24 hours at 24° C. AlfAFP1 was tested in a concentration range from 0 to 80 μg/ml to determine IC50 values. Polypeptide concentrations were determined using the BCA protein assay kit obtained from Pierce (Rockford, Ill.).

Verticillium dahliae [2] = assay: as above; type: cell-based; settings: V. dahliae
Procedure: as §1, §2

[3] = high salt medium (1 mM CaCl2 and 50 mM KCl added)

Substance: AlfAFP1: antifungal polypeptide of 45 amino acids isolated from alfalfa (Medicago) seed, SEQ ID NO:2, about 5,186 daltons (RTCENLADKYRGPCFSGCDTHCTTKENAVSGRCRDDFRCWCTKRC; Alfalfa)
- Lines with disease severity rated equal to or less than 30% (Verticillium dahliae [1]; AlfAFP1 expressing potato lines, 46 days post inoculation, controls 1 out of 21 and 1 out of 18): Thirteen out of 21
- Average Disease Severity (%) (46 Days Post Inoc.) (Verticillium dahliae [1]; average of 21 AlfAFP1 positive potato lines, non-expressors 62.7, vector control 62.2): 29.6%
- Disease severity less than that of the non-expressors or the vector controls (Verticillium dahliae [1]; average of 21 expressor lines versus 21 non-expressor lines or 18 vector control lines, 46 days post inoculation): 52%
- IC50 (concentration required to cause 50% inhibition of fungal hyphal growth), High salt (Fusarium culmorum; [3]): 15 µg/mL
- IC50 (concentration required to cause 50% inhibition of fungal hyphal growth), Low salt (Fusarium culmorum; low salt medium): 1 µg/mL
- IC50 (concentration required to cause 50% inhibition of fungal hyphal growth), High salt (Verticillium dahliae [2]; [3]): 15 µg/mL
- IC50 (concentration required to cause 50% inhibition of fungal hyphal growth), Low salt (Verticillium dahliae [2]; low salt medium): 4 µg/mL
